Test results as given in patent publication US10077289B2, “Cyclosporins modified on the MeBmt sidechain by heterocyclic rings” (priority 2015, dated 2018).
Values after ≈ are worked out from the molar mass of the structure shown. Like-named read-outs stand apart in the source and are kept apart here.

Legend:
[1] = molecular target: Human recombinant cyclophilin A (Cyp A) (Homo sapiens (Human), UniProt P62937); test: Protease-free PPIase assay
[2] = molecular target: calcineurin/cyclophilin A (Homo sapiens (Human), UniProt P62937+P63098+Q08209); test: Calcineurin Phosphatase (CaN) Assay (+CypA); assay type: biochemical; conditions: in the presence of Cyp A, 1:1 complex with inhibitor; read-out: Calcineurin Phosphatase (CaN) Assay (+CypA) IC50
[3] = Water Solubility Assay (measured in pH 7.8 buffer); assay type: physicochemical; conditions: 25 °C, pH 7.8, aqueous buffer, kinetic from dmso stock
[4] = read-out: Protease-free PPIase Assay Ki, human recombinant Cyp A, 10 °C

SMILES | Ki [1, 4] [nM] | IC50 [2] [nM] | solubility at 18 h [3] [µM] | Ki [1] [nM]
CC[C@H]1NC(=O)[C@@H]([C@H](O)[C@H](C)CCCc2ncccn2)N(C)C(=O)[C@@H](C(C)C)N(C)C(=O)[C@@H](CC(C)C)N(C)C(=O)[C@@H](CC(C)C)N(C)C(=O)[C@H](C)NC(=O)[C@@H](C)NC(=O)[C@@H](CC(C)C)N(C)C(=O)[C@@H](C(C)C)NC(=O)[C@H](CC(C)C)N(C)C(=O)CN(C)C1=O [Compound 32, [(2S,3R,4R)-3-Hydroxy-4-methyl-2-(methylamino)-7-(pyrimidin-2-yl)-heptanoic acid]^1 cyclosporin A] | 8.3 | 3450 | 75 to 100 (≈ 95.2 to 127 µg/mL) | 
CC[C@H]1NC(=O)[C@@H]([C@H](O)[C@H](C)CCCc2ccncc2)N(C)C(=O)[C@@H](C(C)C)N(C)C(=O)[C@@H](CC(C)C)N(C)C(=O)[C@@H](CC(C)C)N(C)C(=O)[C@H](C)NC(=O)[C@@H](C)NC(=O)[C@@H](CC(C)C)N(C)C(=O)[C@@H](C(C)C)NC(=O)[C@H](CC(C)C)N(C)C(=O)[C@@H](COC)N(C)C1=O [Compound 33] |  | 2390 | 75 to 100 (≈ 98.4 to 131 µg/mL) | 3.1
CC[C@H]1NC(=O)[C@@H]([C@H](O)[C@H](C)CCCc2ccccn2)N(C)C(=O)[C@@H](C(C)C)N(C)C(=O)[C@@H](CC(C)C)N(C)C(=O)[C@@H](CC(C)C)N(C)C(=O)[C@H](C)NC(=O)[C@@H](C)NC(=O)[C@@H](CC(C)C)N(C)C(=O)[C@@H](C(C)C)NC(=O)[C@H](CC(C)C)N(C)C(=O)[C@@H](CO)N(C)C1=O [Compound 34] |  | 4650 | > 100 | 3.1

Further lines, results first:

Ki [1, 4] [nM] | IC50 [2] [nM] | solubility at 18 h [3] [µM] | Ki [1] [nM] | SMILES
4.4 | 1600 | 75 to 100 (≈ 98.5 to 131 µg/mL) |  | CC[C@H]1NC(=O)[C@@H]([C@H](O)[C@H](C)CCCc2ccccn2)N(C)C(=O)[C@@H](C(C)C)N(C)C(=O)[C@@H](CC(C)C)N(C)C(=O)[C@@H](CC(C)C)N(C)C(=O)[C@H](C)NC(=O)[C@@H](C)NC(=O)[C@@H](CC(C)C)N(C)C(=O)[C@@H](C(C)C)NC(=O)[C@H](CC(C)C)N(C)C(=O)[C@@H](SC)N(C)C1=O [Compound 35]
 | 1260 | > 100 | 7.7 | CC[C@H]1NC(=O)[C@@H]([C@H](O)[C@H](C)CCOc2ncccn2)N(C)C(=O)[C@@H](C(C)C)N(C)C(=O)[C@@H](CC(C)C)N(C)C(=O)[C@@H](CC(C)C)N(C)C(=O)[C@H](C)NC(=O)[C@@H](C)NC(=O)[C@@H](CC(C)C)N(C)C(=O)[C@@H](C(C)C)NC(=O)[C@H](CC(C)C)N(C)C(=O)[C@@H](C)N(C)C1=O [Compound 36, [(2S,3R,4R)-3-Hydroxy-4-methyl-2-(methylamino)-6-(pyrimidin-2-yloxy)-hexanoic acid]^1 cyclosporin A]
 | 5640 | > 100 | 5.6 | CC[C@H]1NC(=O)[C@@H]([C@H](O)[C@H](C)CCOCc2ccncc2)N(C)C(=O)[C@@H](C(C)C)N(C)C(=O)[C@@H](CC(C)C)N(C)C(=O)[C@@H](CC(C)C)N(C)C(=O)[C@H](C)NC(=O)[C@@H](C)NC(=O)[C@@H](CC(C)C)N(C)C(=O)[C@@H](C(C)C)NC(=O)[C@H](CC(C)C)N(C)C(=O)[C@@H](C)N(C)C1=O [Compound 37, [(2S,3R,4R)-3-Hydroxy-4-methyl-2-(methylamino)-6-(pyridin-4-ylmethoxy)-hexanoic acid]^1 cyclosporin A]
